# Patent US6841682B2, “Heterocycles useful in the treatment of benign prostatic hyperplasia” (Janseen Pharmaceutica N.V., priority 1997, dated 2005)
# Where two headings read alike, the source gives them in different places.
# Experiments:
# α1a-AR = biological target: T1, α1a-AR (Homo sapiens, UniProt P35348); experiment: radioligand ([125I]-HEAT) receptor binding assay, COS cell membranes, α1a-AR
# T1 construct: expressed in transfected cells; host or cells: COS cells (pcDNA3 vector, DEAE-dextran transient transfection); membrane preparation
# T1 sequence (P35348 1-466): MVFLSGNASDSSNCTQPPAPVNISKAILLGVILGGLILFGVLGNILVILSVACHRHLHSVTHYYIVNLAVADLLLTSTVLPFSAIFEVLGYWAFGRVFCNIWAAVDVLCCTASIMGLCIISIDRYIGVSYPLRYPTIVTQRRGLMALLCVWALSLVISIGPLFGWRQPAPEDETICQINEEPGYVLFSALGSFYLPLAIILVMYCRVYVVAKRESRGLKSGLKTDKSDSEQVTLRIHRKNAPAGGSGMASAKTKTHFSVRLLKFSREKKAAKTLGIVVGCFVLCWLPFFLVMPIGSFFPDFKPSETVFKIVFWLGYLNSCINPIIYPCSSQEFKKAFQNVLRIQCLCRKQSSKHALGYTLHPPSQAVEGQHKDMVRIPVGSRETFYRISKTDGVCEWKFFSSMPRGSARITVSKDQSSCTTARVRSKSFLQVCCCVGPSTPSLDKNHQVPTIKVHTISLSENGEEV
# Description: (§1) The first assay tested the ability of compounds of Formula I to bind to membrane bound receptors α1a-AR, α1b-AR and α1d-AR.
# (§2) The DNA sequences of the three cloned human α1-AR subtypes have been published. […] We used published DNA sequence information to design-primers for use in RT-PCR amplification of each subtype to obtain cloned cDNAs. Human poly A+ RNA was obtained from commercially available sources and included hippocampus and prostate samples, sources which have been cited in the literature. For the primary screen a radio ligand binding assay was used which employed membrane preparations from cells expressing the individual cloned receptor cDNAs.
# (§3) Each α1 receptor subtype was cloned from poly A+ RNA by the standard method of reverse transcription-polymerase chain reaction (RT-PCR). The following sources of polyA+ RNA were used for the cloning of the al receptor subtypes: α1a-AR, human hippocampus and prostate, α1b-AR, human hippocampus, α1d-AR, human hippocampus. The resulting cDNAs were cloned into the pcDNA3 mammalian expression vector (Invitrogen Corp., San Diego Calif.). Each DNA was sequenced for verification and to detect any possible mutations introduced during the amplification process. Any deviation in sequence from the published consensus for each receptor subtype was corrected by site-directed mutagenesis.
# (§4) The three α1-AR subtypes (a, b, d) were transfected into COS cells using a standard DEAE-dextran procedure with a chloroquine shock. In this procedure, each tissue culture dish (100 mm) was inoculated with 3.5×10^6 cells and transfected with 10 μg of DNA. Approximately 72 hours post-transfection, the cells were harvested and COS membranes were prepared. Transfected COS cells from 25 plates (100 mm) were scraped and suspended in 15 mL of TE buffer (50 mM Tris-HCl, 5 mM EDTA, pH7.4). The suspension was disrupted with a homogenizer. It was then centrifuged at 1000×g for 10 minutes at 4° C. The supernatant was centrifuged at 34,500×g for 20 minutes at 4° C. The pellet was resuspended in 5 mL TNE buffer (50 mM Tris-HCl, 5 mM EDTA, 150 mM NaCl, pH7.4). The resulting membrane preparation was aliquoted and stored at −70° C. The protein concentration was determined following membrane solubilization with TritonX-100.
# The ability of each compound to bind to each of the α1-AR subtypes was assessed in a receptor binding assay. […] The plate was incubated for 1 hour at room temperature and the reaction mixtures were filtered through a Packard GF/C Unifilter filter plate. The filter plate was dried for 1 hour in a vacuum oven. Scintillation fluid ([…]) was added to each well, and the filter plate was counted in a Packard Topcount scintillation counter. Data was analyzed using GraphPad Prism software.
# α1b-AR = biological target: T2, α1b-AR (Homo sapiens, UniProt P35368); experiment: radioligand ([125I]-HEAT) receptor binding assay, COS cell membranes, α1b-AR
# T2 construct: expressed in transfected cells; host or cells: COS cells (pcDNA3 vector, DEAE-dextran transient transfection); membrane preparation
# T2 sequence (P35368 1-520): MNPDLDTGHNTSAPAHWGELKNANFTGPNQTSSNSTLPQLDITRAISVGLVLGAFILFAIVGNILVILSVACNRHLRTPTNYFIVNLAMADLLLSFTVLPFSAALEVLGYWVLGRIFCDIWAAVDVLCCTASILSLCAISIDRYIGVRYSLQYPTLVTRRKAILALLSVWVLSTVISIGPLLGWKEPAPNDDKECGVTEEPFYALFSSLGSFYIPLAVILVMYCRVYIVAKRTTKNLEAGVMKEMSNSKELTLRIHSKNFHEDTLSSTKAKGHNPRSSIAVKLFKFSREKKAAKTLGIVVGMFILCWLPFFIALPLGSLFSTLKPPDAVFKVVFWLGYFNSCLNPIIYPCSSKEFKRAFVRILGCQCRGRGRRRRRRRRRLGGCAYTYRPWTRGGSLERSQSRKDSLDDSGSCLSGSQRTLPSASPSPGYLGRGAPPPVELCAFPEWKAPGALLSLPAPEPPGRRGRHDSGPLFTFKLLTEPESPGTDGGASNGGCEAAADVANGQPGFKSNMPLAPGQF
# Description: as §1
# as §2, with “receptor cDNAs. Radiolabeled ligands with binding activity on all three subtypes (non-selective) are commercially available ([125I]-HEAT, [3H]-prazosin).” for “receptor cDNAs.”
# as §3, §4
# (§5) The ability of each compound to bind to each of the α1-AR subtypes was assessed in a receptor binding assay. [125I]-HEAT, a non-selective α1-AR ligand, was used as the radiolabeled ligand. Each well of a 96-well plate received: 140 μL TNE, 25 μL [125I]-HEAT diluted in TNE (50,000 cpm; final concentration 50 pM), 10 μL test compound diluted in DMSO (final concentration 1 pM-10 μM), […] COS cell membrane preparation expressing one of the three α1-AR subtypes (0.05-0.2 mg membrane protein). The plate was incubated for 1 hour at room temperature and the reaction mixtures were filtered through a Packard GF/C Unifilter filter plate. The filter plate was dried for 1 hour in a vacuum oven. Scintillation fluid ([…]) was added to each well, and the filter plate was counted in a Packard Topcount scintillation counter. Data was analyzed using GraphPad Prism software.
# (§6) Tables A-J list the IC50 values expressed in nanomolar concentration for select compounds of the invention in all receptor subtypes.
# α1d-AR = biological target: T3, α1d-AR (Homo sapiens, UniProt P25100); experiment: radioligand ([125I]-HEAT) receptor binding assay, COS cell membranes, α1d-AR; settings: Tables A-J, [125I]-HEAT 50 pM
# T3 construct: expressed in transfected cells; host or cells: COS cells (pcDNA3 vector, DEAE-dextran transient transfection); membrane preparation
# T3 sequence (P25100 1-572): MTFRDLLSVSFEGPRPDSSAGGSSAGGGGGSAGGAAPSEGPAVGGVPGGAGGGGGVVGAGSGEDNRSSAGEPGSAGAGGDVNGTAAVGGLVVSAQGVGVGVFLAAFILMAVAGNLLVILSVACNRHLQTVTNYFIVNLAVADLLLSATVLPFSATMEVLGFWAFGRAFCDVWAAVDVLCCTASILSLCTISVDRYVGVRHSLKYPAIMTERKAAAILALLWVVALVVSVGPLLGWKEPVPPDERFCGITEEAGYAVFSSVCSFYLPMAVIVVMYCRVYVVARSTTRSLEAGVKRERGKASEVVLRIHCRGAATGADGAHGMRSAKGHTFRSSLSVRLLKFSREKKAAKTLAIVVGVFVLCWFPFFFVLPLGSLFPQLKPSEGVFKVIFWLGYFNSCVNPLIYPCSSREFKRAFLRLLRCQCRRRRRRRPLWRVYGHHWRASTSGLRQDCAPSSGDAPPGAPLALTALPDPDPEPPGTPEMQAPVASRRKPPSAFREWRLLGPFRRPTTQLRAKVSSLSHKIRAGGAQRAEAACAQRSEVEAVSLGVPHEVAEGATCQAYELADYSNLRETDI
# Description: as §1
# as §2, with “receptor cDNAs. Radiolabeled ligands with binding activity on all three subtypes (non-selective) are commercially available ([125I]-HEAT, [3H]-prazosin).” for “receptor cDNAs.”
# as §3, §4, §5, §6
# α1c = biological target: T4, α1c (Homo sapiens, UniProt P25100); experiment: α1c screen (as named in the preparative examples); format: binding; settings: stated in the preparative example
# T4 construct: expressed in transfected cells
# T4 sequence (P25100 1-572): T3 sequence (P25100 1-572)
# Description: as §1
# as §2, with “receptor cDNAs. Radiolabeled ligands with binding activity on all three subtypes (non-selective) are commercially available ([125I]-HEAT, [3H]-prazosin).” for “receptor cDNAs.”
# as §3, §4
# The ability of each compound to bind to each of the α1-AR subtypes was assessed in a receptor binding assay. [125I]-HEAT, a non-selective α1-AR ligand, was used as the radiolabeled ligand. […] Scintillation fluid (25 mL) was added to each well, and the filter plate was counted in a Packard Topcount scintillation counter. Data was analyzed using GraphPad Prism software.
# [1] = Tables A-J, [125I]-HEAT 50 pM, COS membranes, read-out: α1a IC50
# [2] = Tables A-J, [125I]-HEAT 50 pM, COS membranes, read-out: α1b IC50
# [3] = stated in the preparative example, read-out: activity in the α1a screen
# [4] = stated in the preparative example, read-out: activity in the α1b screen
Structure (SMILES),IC50 (α1a-AR; [1]) [nM],IC50 (α1b-AR; [2]) [nM],IC50 (α1d-AR) [nM],IC50 (α1c) [nM],IC50 (α1a-AR; [3]) [nM],IC50 (α1b-AR; [4]) [nM]
COc1ccccc1N1CCN(Cc2ccc(CN3CCCCCC3=O)s2)CC1 [compound 49],37,> 10000,24,–,–,–
CC(C)Oc1ccccc1N1CCN(Cc2cccc(CN3C(=O)CCCC3c3ccccc3)n2)CC1 (centres unmarked) [compound 47],147,3320,291,–,–,–
CC(C)Oc1ccccc1N1CCN(Cc2cc(CN3CCCCC3=O)on2)CC1 [Compound 8],3.8,–,272,–,–,–
COc1ccccc1N1CCN(Cc2ccc(CN3CCCC3=O)s2)CC1 [Compound 23],80,> 10000,46,–,–,–
CC(C)Oc1ccccc1N1CCN(CC(O)CC(O)CN2CCCCC2=O)CC1 (centres unmarked) [compound 37],–,–,–,224,53,> 10000
CC(C)Oc1ccccc1N1CCN(Cc2cc(CN3CCCC3=O)no2)CC1 [Compound 28],2.2,> 5980,131,–,–,–
COc1ccccc1N1CCN(Cc2ccc(CN3CCCCC3CO)s2)CC1 (centres unmarked) [compound 50],838,> 5140,261,–,–,–
CC(C)Oc1ccccc1N1CCN(Cc2ncc(CN3CCCC3=O)s2)CC1 [Compound 17],2.5,3470,79,–,–,–
CC(C)Oc1ccccc1N1CCN(Cc2cc(CN3CCCCC3=O)cs2)CC1 [compound 55],1,768,185,–,–,–
CC(C)Oc1ccccc1N1CCN(Cc2cc(CN3CCCCCC3=O)cs2)CC1 [compound 56],3.7,1230,95,–,–,–
CC(C)Oc1ccccc1N1CCN(CC2=NOC(CN3CCCCC3=O)C2)CC1 (centres unmarked) [Compound 9],89,> 10000,1520,–,–,–
CC(C)Oc1ccccc1N1CCN(Cc2cc(CN3CCCC3=O)cs2)CC1 [Compound 32],0.83,620,24,–,–,–
CC(C)Oc1ccccc1N1CCN(CC(O)CC(=O)CN2CCCCC2=O)CC1 (centres unmarked) [compound 35],–,–,–,253,28,> 10000
COc1ccccc1N1CCN(Cc2cccc(CN3CCCCC3=O)n2)CC1 [compound 54],1730,3020,500,–,–,–
CC(C)Oc1ccccc1N1CCN(CC(=O)CC(=O)CN2CCCCC2=O)CC1 [compound 2],–,–,–,6040,417,> 10000
COc1ccccc1N1CCN(Cc2cccc(CN3CCCCCC3=O)n2)CC1 [compound 42],8590,1420,526,–,–,–
COc1ccccc1N1CCN(Cc2cccc(CN3CCCC3=O)n2)CC1 [compound 43],7720,2640,1560,–,–,–
O=C1CCCCCN1Cc1cc(CN2CCN(c3ccccc3Oc3ccccc3)CC2)on1 [compound 39],172,> 10000,570,–,–,–
CC(C)Oc1ccccc1N1CCN(Cc2cc(CN3CCCCC3=O)nc(N)n2)CC1 [Compound 4],79,> 10000,> 10000,–,–,–
COc1ccccc1N1CCN(Cc2cccc(CN3CCCCCCC3=O)n2)CC1 [compound 44],2030,3940,577,–,–,–
COc1ccccc1N1CCN(Cc2cccc(CN3CCC3=O)n2)CC1 [compound 41],7630,3170,1680,–,–,–
O=C1CCCN1Cc1cc(CN2CCN(c3ccccc3Oc3ccccc3)CC2)on1 [compound 38],30,4410,341,–,–,–
CC(C)Oc1ccccc1N1CCN(C/C=C/C(=O)CN2CCCCC2=O)CC1 [compound 36],6.3,> 10000,215,602,18,5320
CC(C)Oc1ccccc1N1CCN(Cc2cccc(CN3C(=O)CCCC3=O)n2)CC1 [compound 45],98,96,197,–,–,–
COc1ccccc1N1CCN(Cc2ccc(CN3CCCCC3=O)s2)CC1 [compound 48],29,> 10000,26,–,–,–
CC(C)Oc1ccccc1N1CCN(Cc2nc(CN3CCCCC3=O)co2)CC1 [Compound 12],4640,> 10000,> 10000,–,–,–
CC(C)Oc1ccccc1N1CCN(Cc2cccc(CN3C(=O)CCC3=O)n2)CC1 [compound 46],69,1750,174,–,–,–
